Measured values as given in article PMC11784183, “Identification of an antibiotic from an HTS targeting EF-Tu:tRNA interaction: a prospective topical treatment for MRSA skin infections” (Applied and Environmental Microbiology, 2024).
≈ marks a conversion by molar mass, not a printed value. Like-named read-outs stand apart in the source and are kept apart here.

What was measured:
[1] = test system: S. simulans; test: MIC testing by broth microdilution; type: cell-based; details: Staphylococcus simulans; BK strain 26201
[2] = test system: S. cohnii; test: MIC testing by broth microdilution; type: cell-based; details: Staphylococcus cohnii; BK strain 22939
[3] = test system: S. epidermidis; test: MIC testing by broth microdilution; type: cell-based
[4] = test system: S. capitis; test: MIC testing by broth microdilution; type: cell-based; details: Staphylococcus capitis
[5] = in vivo; details: male, C57B6, mouse, ip, 10 mg/kg
[6] = test system: S. warneri; test: MIC testing by broth microdilution; type: cell-based
[7] = test system: S. haemolyticus; test: MIC testing by broth microdilution; type: cell-based; details: Staphylococcus haemolyticus; BK strain 21148
[8] = test system: non-aureus staphylococcal strains (14 species); test: MIC testing by broth microdilution, panel of non-aureus staphylococcal strains; type: cell-based, Staphylococcus spp.; details: Staphylococcus; for 18 of 23 other Staphylococcal strains; read-out: MIC90 and MIC50
[9] = test system: P. aeruginosa (ATCC BAA47); test: Drug susceptibility assay (96-well, MIC); type: cell-based; details: Pseudomonas aeruginosa, ATCCBAA47; Gram-negative
[10] = test system: S. sciuri; test: MIC testing by broth microdilution; type: cell-based
[11] = test system: Staphylococcus aureus; test: MIC testing by broth microdilution; type: cell-based
[12] = male, C57B6, mouse, in vivo, ip, 10 mg/kg, 7 h
[13] = test system: K. pneumoniae (ATCC 43816); test: Drug susceptibility assay (96-well, MIC); type: cell-based; details: Klebsiella pneumoniae, ATCC43816; Gram-negative
[14] = type: in vitro ADME, rat
Method: (§1) Briefly, each reaction mixture (110 µL) consisted of a test article (1 µM), mix gender human, male Sprague Dawley rat or male CD-1 mouse microsomal fractions (0.5 mg/mL), and NADPH regenerating system in phosphate buffer at pH 7.4. Samples were incubated in 384-well plates at 37°C for 0, 5, 10, 15, 30, and 60 min. Sample analysis and half-life calculations were performed using a previously described method ([22]). The three controls used were Buspirone (short half-life), Loperamide (moderate half-life), and Antipyrine (long half-life).
(§2) Categories were defined as follows: unstable, t1/2 < 30 min; stable, t1/2 > 30 min.

[15] = mouse, in vivo, ip, 10 mg/kg
[16] = test system: M. tuberculosis H37Rv (ATTC 27294); test: Drug susceptibility assay (96-well, MIC); type: cell-based; details: Mycobacterium tuberculosis, Acid-fast
[17] = test system: Vero cells (ATCC CCL-81)
Method: Compounds were tested for cytotoxicity against Vero cells using the CellTiter 96 AQueous One Solution Assay kit (Promega). Vero cells were seeded in 96-well plates at a density of 2 × 10^4 cells per well, and the plates were incubated for 4 h at 37°C to allow attachments of the Vero cells. Chemical compounds being tested were then added to the wells starting from a final concentration of 50 µg/mL and making 12 1:2 dilutions. Cells were incubated for 72 h at 37°C, after which 20 µL of freshly prepared MTS:PMS reagents were added to each well. Plates were incubated for 2 h and then read at an absorbance of 490 nm.

[18] = test system: B. subtilis; test: Inhibition of bacterial growth in liquid culture; type: cell-based; details: Bacillus subtilis
Method: (§3) Strains and reagents were the same as in the zone-inhibition assay (above). […] The culture was diluted again 1/500 in 1 mL of fresh media with the presence of increasing concentrations of tested compound or 1% DMSO as a control.

[19] = test system: S. lentus; test: MIC testing by broth microdilution; type: cell-based
[20] = test system: S. aureus; test: Drug susceptibility assay (96-well, MIC); type: cell-based; details: Staphylococcus aureus
[21] = test system: S. xylosus; test: MIC testing by broth microdilution; type: cell-based; details: Staphylococcus xylosus; BK strain 26203
[22] = test system: S. aureus USA300 subcutaneous infection; test: Mouse skin infection model, topical ointment; type: in vivo, mice; details: topical ointment daily
[23] = test system: ERβ receptor; design: method as in PMID 9927308; details: cited from earlier work
[24] = test system: S. pseudintermedius; test: MIC testing by broth microdilution; type: cell-based
[25] = test system: S. aureus USA300; details: 15 µM, 0-4 h
Method: S. aureus USA300 was inoculated 1:100 into LB medium from overnight cultures. Cells were grown to the early exponential phase and back diluted to OD600 0.1. […] Samples were serially diluted and plated on LB agar. Colonies were enumerated after overnight incubation at 37°C. Time-kill experiments were performed with n = 4 biological replicates.

[26] = test system: S. lugdunensis; test: MIC testing by broth microdilution; type: cell-based
[27] = type: in vitro ADME, human
Method: as §1, §2

[28] = test system: ribosomal translation in vitro (PURExpress); test: Purified in vitro translation assay (PURExpress); type: biochemical; details: highest concentration tested
Excerpt: (A) Coomassie blue staining of sodium dodecyl sulfate polyacrylamide gel electrophoresis (SDS-PAGE) following in vitro translation with the PURExpress translation kit (New England Biolabs). The protein synthesized (Dihydrofolate reductase) in the reaction is shown in the small rectangles superimposed on the gel. (B) Quantification using a BioRad gel scanner and software provided with this scanner.
PURExpress in vitro purified ribosomal translation kit (New England Biolabs) was used. Biochemical protocols used were as described by the manufacturer.

[29] = test system: S. gallinarum; test: MIC testing by broth microdilution; type: cell-based; details: BK strain 26189
[30] = test system: E. coli; test: Inhibition of bacterial growth; type: cell-based; details: not shown
Method: as §3

[31] = test system: S. caprae; test: MIC testing by broth microdilution; type: cell-based; details: BK strain 22945
[32] = test system: A. baumannii (ATCC 17988); test: Drug susceptibility assay (96-well, MIC); type: cell-based; details: Acinetobacter baumannii, ATCC17988; Gram-negative
[33] = test system: S. saprophyticus; test: MIC testing by broth microdilution; type: cell-based

CC[C@@H]1Cc2cc(O)ccc2C2=C1c1ccc(O)cc1C[C@H]2CC [MGC-10]
MIC [1]: 6 µM (≈ 1.92 µg/mL)
MIC [2]: 12 µM (≈ 3.85 µg/mL)
MIC ([3]; BK strain 26974, Methicillin R): 6 µM (≈ 1.92 µg/mL)
MIC ([3]; Staphylococcus epidermidis, BK strain 21192, Methicillin R): 6 µM (≈ 1.92 µg/mL)
MIC ([4]; BK strain 22034): 12 µM (≈ 3.85 µg/mL)
MIC ([4]; BK strain 24463): 6 µM (≈ 1.92 µg/mL)
AUC(0-inf) [5]: 171 µg·h/mL
half-life [5]: 126 min
concentration at 7 h ([5]; Clast): 733 ng/mL
MIC ([6]; BK strain 26202): 6 µM (≈ 1.92 µg/mL)
MIC ([6]; Staphylococcus warneri, BK strain 24473): 6 µM (≈ 1.92 µg/mL)
MIC [7]: 12 µM (≈ 3.85 µg/mL)
MIC90 [8]: 6 µM (≈ 1.92 µg/mL)
MIC [9]: > 100 µM
MIC ([10]; BK strain 26200): 6 µM (≈ 1.92 µg/mL)
MIC ([10]; Mammaliicoccus sciuri, BK strain 26199): 6 µM (≈ 1.92 µg/mL)
MIC ([11]; MRSA / USA300, BK strain 19494, CC 8, USA300, MRSA): 6 µM (≈ 1.92 µg/mL)
MIC ([11]; MRSA / USA300 / USA500, MRSA clinical isolates typed as USA300 and USA500): 6 µM (≈ 1.92 µg/mL)
MIC ([11]; MRSA / USA400, BK strain 19484, CC 1, USA400, MRSA): 6 µM (≈ 1.92 µg/mL)
MIC ([11]; MRSA / USA600, BK strain 18519, CC 45, USA600, MRSA): 6 µM (≈ 1.92 µg/mL)
MIC ([11]; MRSA / USA800, BK strain 18267, CC 5, USA800, MRSA): 6 µM (≈ 1.92 µg/mL)
MIC ([11]; MRSA, BK strain 13180, CC 8, Trimethoprim-sulfamethoxazole resistant): 6 µM (≈ 1.92 µg/mL)
MIC ([11]; MRSA, BK strain 21209, CC 8, Linezolid resistant): 6 µM (≈ 1.92 µg/mL)
MIC ([11]; MRSA, BK strain 21346, CC 5, Tigecycline resistant): 6 µM (≈ 1.92 µg/mL)
MIC ([11]; MRSA, BK strain 21347, CC 22, Linezolid resistant): 6 µM (≈ 1.92 µg/mL)
MIC ([11]; MRSA, BK strain 22522, CC 5, Vancomycin resistant (vanA+), MRSA): 6 µM (≈ 1.92 µg/mL)
MIC ([11]; MRSA, BK strain 22523, CC 5, Vancomycin resistant (vanA+), MRSA): 6 µM (≈ 1.92 µg/mL)
MIC ([11]; MRSA, BK strain 23735, CC 125, BORSA): 6 µM (≈ 1.92 µg/mL)
MIC ([11]; MRSA, BK strain 23736, CC 1, BORSA): 6 µM (≈ 1.92 µg/mL)
MIC ([11]; MRSA, BK strain 26638, CC 398, LA-MRSA): 6 µM (≈ 1.92 µg/mL)
MIC ([11]; MRSA, BK strain 46376, CC 8, hVISA): 6 µM (≈ 1.92 µg/mL)
MIC ([11]; MRSA, BK strain 46377, CC 8, hVISA): 6 µM (≈ 1.92 µg/mL)
MIC ([11]; MRSA, BK strain 58711, CC 5, Rifampin resistant): 6 µM (≈ 1.92 µg/mL)
MIC ([11]; MRSA, BK strain 59775, CC 8, Trimethoprim-sulfamethoxazole resistant): 6 µM (≈ 1.92 µg/mL)
MIC ([11]; MRSA, BK strain 61828, CC 398, MRSA): 6 µM (≈ 1.92 µg/mL)
MIC ([11]; MRSA, BK strain 62861, CC 45, MRSA): 6 µM (≈ 1.92 µg/mL)
MIC ([11]; MRSA, BK strain 62874, CC 59, MRSA): 6 µM (≈ 1.92 µg/mL)
MIC ([11]; MRSA, BK strain 62961, CC 5, MRSA): 6 µM (≈ 1.92 µg/mL)
MIC ([11]; MRSA, BK strain 62969, CC 5, MRSA): 6 µM (≈ 1.92 µg/mL)
MIC ([11]; MRSA, BK strain 62976, CC 398, MRSA): 6 µM (≈ 1.92 µg/mL)
MIC ([11]; MRSA, BK strain 63193, CC 30, MRSA): 6 µM (≈ 1.92 µg/mL)
MIC ([11]; MRSA, BK strain 63218, CC 8, MRSA): 6 µM (≈ 1.92 µg/mL)
MIC ([11]; MRSA, BK strain 63341, CC 8, MRSA): 6 µM (≈ 1.92 µg/mL)
MIC ([11]; MRSA, BK strain 63738, CC 59, MRSA): 6 µM (≈ 1.92 µg/mL)
MIC ([11]; MRSA, BK strain 63765, CC 30, MRSA): 12 µM (≈ 3.85 µg/mL)
MIC ([11]; MRSA, BK strain 63776, CC 398, MRSA): 6 µM (≈ 1.92 µg/mL)
MIC ([11]; MRSA, BK strain 63777, CC 45, MRSA): 6 µM (≈ 1.92 µg/mL)
MIC ([11]; MRSA, methicillin-resistant Staphylococcus aureus (MRSA), abstract): 6 µM (≈ 1.92 µg/mL)
MIC ([11]; MSSA / NCTC 8325, BK strain 21189, CC 8, MSSA (NCTC 8325)): 12 µM (≈ 3.85 µg/mL)
MIC ([11]; MSSA, BK strain 73239, Mupirocin R): 1.5 µM (≈ 0.481 µg/mL)
MIC ([11]; MSSA, BK strain 73242, Mupirocin R): 3 µM (≈ 0.961 µg/mL)
MIC ([11]; MSSA, BK strain 73250, Mupirocin R): 3 µM (≈ 0.961 µg/mL)
MIC ([11]; MSSA, BK strain 73267, Mupirocin R): 6 µM (≈ 1.92 µg/mL)
MIC ([11]; MSSA, BK strain 73269, Mupirocin R): 6 µM (≈ 1.92 µg/mL)
MIC ([11]; MSSA, BK strain 73336, Mupirocin R): 12 µM (≈ 3.85 µg/mL)
MIC ([11]; MSSA, BK strain 73337, Mupirocin R): 3 µM (≈ 0.961 µg/mL)
MIC90 ([11]; for 29 of 31 MRSA strains, read-out: MIC90 and MIC50): 6 µM (≈ 1.92 µg/mL)
MIC ([11]; laboratory S. aureus strain 8325): 12 µM (≈ 3.85 µg/mL)
Clast [12]: 532 ng/mL
MIC [13]: > 100 µM
depletion of the compound in liver microsomes [14]: no depletion
in-life observations [15]: exhibited hunched postures; and were lethargic
MIC [16]: 100 µM (≈ 32 µg/mL)
cytotoxicity against Vero mammalian cells [17]: no cytotoxicity
MIC (cytotoxicity, Vero) ([17]; African green monkey, 72 h): 50 µM (≈ 16 µg/mL)
inhibition at 6 µM [18]: 97%
MIC ([19]; BK strain 26639, Methicillin R): 6 µM (≈ 1.92 µg/mL)
MIC ([19]; Mammaliicoccus lentus, BK strain 26191): 6 µM (≈ 1.92 µg/mL)
MIC ([20]; ATCC25923): 6.25 µM (≈ 2 µg/mL)
MIC ([20]; ATCC35556): 6.25 µM (≈ 2 µg/mL)
MIC ([20]; ATCC 43300 / MRSA, S. aureus mecA + (MRSA) (ATCC 43300), Gram-positive, read-out: MIC): 6.25 µM
MIC [21]: 6 µM (≈ 1.92 µg/mL)
dermonecrosis as a result of S. aureus infection (area over time) ([22]; 5 days, vs untreated control (ointment without drug)): able to reduce dermonecrosis
bacterial burden in punch biopsies ([22]; day 5, vs untreated control): not statistically significant (P = 0.0575)
activity at ERβ receptor [23]: antagonist
MIC ([24]; BK strain 24474): 6 µM (≈ 1.92 µg/mL)
MIC ([24]; BK strain 25938): 6 µM (≈ 1.92 µg/mL)
MIC ([24]; BK strain 26190): 12 µM (≈ 3.85 µg/mL)
bactericidal test (CFU/mL over time) [25]: notable bactericidal activity
MIC ([26]; BK strain 28088, Methicillin R): 6 µM (≈ 1.92 µg/mL)
MIC ([26]; Staphylococcus lugdunensis, BK strain 26192): 6 µM (≈ 1.92 µg/mL)
depletion of the compound in liver microsomes [27]: no depletion
complete inhibition of translation [28]: complete inhibition was not achieved
MIC [29]: 12 µM (≈ 3.85 µg/mL)
inhibition of growth of E. coli [30]: No inhibition
MIC [31]: 6 µM (≈ 1.92 µg/mL)
MIC [32]: > 100 µM
MIC ([33]; BK strain 26195): 6 µM (≈ 1.92 µg/mL)
MIC ([33]; Staphylococcus saprophyticus, BK strain 26194): 6 µM (≈ 1.92 µg/mL)
